According to patent publication US12077503B2, “Substituted cyclic amides and their use as herbicides” (FMC CORPORATION, priority 2015, dated 2024):

What was measured:
Type in all cases: in vivo
[1] = test system: barnyardgrass (Echinochloa crus-galli); assay: Test G Pre-Emergence Protocol; conditions: Echinochloa crus-galli, pre-emergence, 312 h, evaluated after 13 days
How it was run: (§1)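 Test compound in 0.5% Tween 20 acetone/water (50:50) was applied at three rates (15.625, 62.5, 250 g/ha) to soil sown one day earlier. After 13 days plants were scored for injury, where 0 means unaffected and 100 means completely damaged.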

corn (Zea mays) [2] = assay: Test G Pre-Emergence Protocol; conditions: Zea mays, pre-emergence, 312 h, evaluated after 13 days
How it was run: as §1

[3] = test system: giant foxtail (Setaria faberi); assay: Test G Pre-Emergence Protocol; conditions: Setaria faberi, pre-emergence, 312 h, evaluated after 13 days
How it was run: as §1

[4] = test system: ivy-leaved morning glory (Ipomoea hederacea); assay: Test G Pre-Emergence Protocol; conditions: Ipomoea, pre-emergence, 312 h, evaluated after 13 days
How it was run: as §1

[5] = test system: redroot pigweed (Amaranthus retroflexus); assay: Test G Pre-Emergence Protocol; conditions: Amaranthus retroflexus, pre-emergence, 312 h, evaluated after 13 days
How it was run: as §1

[6] = test system: velvetleaf (Abutilon theophrasti); assay: Test G Pre-Emergence Protocol; conditions: Abutilon theophrasti, pre-emergence, 312 h, evaluated after 13 days
How it was run: as §1

[7] = test system: barnyardgrass (Echinochloa crus-galli); assay: Test G Post-Emergence Protocol; conditions: Echinochloa crus-galli, post-emergence, 312 h, read-out: Barnyardgrass damage rating
How it was run: (§2)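 A glasshouse post-emergence test: 8-day-old plants sprayed at 15.625, 62.5 or 250 g/ha, then grown at 24/16 °C day/night with 14 h light and 65% humidity. Damage rated 13 days later, 0–100.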

corn (Zea mays) [8] = assay: Test G Post-Emergence Protocol; conditions: Zea mays, post-emergence, 312 h, read-out: Corn damage rating
How it was run: as §2

[9] = test system: giant foxtail (Setaria faberi); assay: Test G Post-Emergence Protocol; conditions: Setaria faberi, post-emergence, 312 h, read-out: Foxtail, Giant damage rating
How it was run: as §2

[10] = test system: ivy-leaved morning glory (Ipomoea hederacea); assay: Test G Post-Emergence Protocol; conditions: Ipomoea, post-emergence, 312 h, read-out: Morningglory, Ivy-leaved damage rating
How it was run: as §2

[11] = test system: redroot pigweed (Amaranthus retroflexus); assay: Test G Post-Emergence Protocol; conditions: Amaranthus retroflexus, post-emergence, 312 h, read-out: Pigweed, Redroot damage rating
How it was run: as §2

[12] = test system: velvetleaf (Abutilon theophrasti); assay: Test G Post-Emergence Protocol; conditions: Abutilon theophrasti, post-emergence, 312 h, read-out: Velvetleaf damage rating
How it was run: as §2

[13] = 15.625 g ai/ha, evaluated after 13 days (100=total damage to plant; 0=no damage to plant)
[14] = 62.5 g ai/ha, evaluated after 13 days, 100=total damage to plant, 0=no damage to plant
[15] = 250 g ai/ha, evaluated after 13 days, 100=total damage to plant, 0=no damage to plant

## Cc1ccc(C2CN(C)C(=O)C2C(=O)Nc2cccc(F)c2F)cc1[N+](=O)[O-] (stereo not drawn) [Compound 1722]
[1]; 15.625 g ai/ha, read-out: Barnyardgrass damage rating (100=total damage to plant; 0=no damage to plant)
  pest or weed control at 15.625 g/ha: 0%
[1]; 62.5 g ai/ha, 100=total damage to plant, 0=no damage to plant, read-out: Barnyardgrass damage rating
  pest or weed control at 62.5 g/ha: 60%
[1]; 250 g ai/ha, read-out: Barnyardgrass damage rating (100=total damage to plant; 0=no damage to plant)
  pest or weed control at 250 g/ha: 80%
Corn (Zea mays) [2]; 15.625 g ai/ha, read-out: Corn damage rating (100=total damage to plant; 0=no damage to plant)
  plant injury at 15.625 g/ha: 10%
Corn (Zea mays) [2]; 62.5 g ai/ha, 100=total damage to plant, 0=no damage to plant, read-out: Corn damage rating
  plant injury at 62.5 g/ha: 30%
Corn (Zea mays) [2]; 250 g ai/ha, read-out: Corn damage rating (100=total damage to plant; 0=no damage to plant)
  plant injury at 250 g/ha: 70%
[3]; 15.625 g ai/ha, read-out: Foxtail, Giant damage rating (100=total damage to plant; 0=no damage to plant)
  pest or weed control at 15.625 g/ha: 60%
[3]; 62.5 g ai/ha, 100=total damage to plant, 0=no damage to plant, read-out: Foxtail, Giant damage rating
  pest or weed control at 62.5 g/ha: 70%
[3]; 250 g ai/ha, read-out: Foxtail, Giant damage rating (100=total damage to plant; 0=no damage to plant)
  pest or weed control at 250 g/ha: 90%
[4]; 15.625 g ai/ha, read-out: Morningglory, Ivy-leaved damage rating (100=total damage to plant; 0=no damage to plant)
  pest or weed control at 15.625 g/ha: 0%
[4]; 62.5 g ai/ha, 100=total damage to plant, 0=no damage to plant, read-out: Morningglory, Ivy-leaved damage rating
  pest or weed control at 62.5 g/ha: 0%
[4]; 250 g ai/ha, read-out: Morningglory, Ivy-leaved damage rating (100=total damage to plant; 0=no damage to plant)
  pest or weed control at 250 g/ha: 0%
[5]; 15.625 g ai/ha, read-out: Pigweed, Redroot damage rating (100=total damage to plant; 0=no damage to plant)
  pest or weed control at 15.625 g/ha: 0%
[5]; 62.5 g ai/ha, 100=total damage to plant, 0=no damage to plant, read-out: Pigweed, Redroot damage rating
  pest or weed control at 62.5 g/ha: 10%
[5]; 250 g ai/ha, read-out: Pigweed, Redroot damage rating (100=total damage to plant; 0=no damage to plant)
  pest or weed control at 250 g/ha: 30%
[6]; 15.625 g ai/ha, read-out: Velvetleaf damage rating (100=total damage to plant; 0=no damage to plant)
  pest or weed control at 15.625 g/ha: 0%
[6]; 62.5 g ai/ha, 100=total damage to plant, 0=no damage to plant, read-out: Velvetleaf damage rating
  pest or weed control at 62.5 g/ha: 0%
[6]; 250 g ai/ha, read-out: Velvetleaf damage rating (100=total damage to plant; 0=no damage to plant)
  pest or weed control at 250 g/ha: 20%
[7]; [13]
  pest or weed control at 15.625 g/ha: 10%
[7]; [14]
  pest or weed control at 62.5 g/ha: 60%
[7]; [15]
  pest or weed control at 250 g/ha: 80%
Corn (Zea mays) [8]; [13]
  plant injury at 15.625 g/ha: 10%
Corn (Zea mays) [8]; [14]
  plant injury at 62.5 g/ha: 0%
Corn (Zea mays) [8]; [15]
  plant injury at 250 g/ha: 80%
[9]; [13]
  pest or weed control at 15.625 g/ha: 60%
[9]; [14]
  pest or weed control at 62.5 g/ha: 70%
[9]; [15]
  pest or weed control at 250 g/ha: 80%
[10]; [13]
  pest or weed control at 15.625 g/ha: 20%
[10]; [14]
  pest or weed control at 62.5 g/ha: 30%
[10]; [15]
  pest or weed control at 250 g/ha: 70%
[11]; [13]
  pest or weed control at 15.625 g/ha: 0%
[11]; [14]
  pest or weed control at 62.5 g/ha: 10%
[11]; [15]
  pest or weed control at 250 g/ha: 30%
[12]; [13]
  pest or weed control at 15.625 g/ha: 0%
[12]; [14]
  pest or weed control at 62.5 g/ha: 10%
[12]; [15]
  pest or weed control at 250 g/ha: 10%
